Here are results for seven compounds from patent US8476253B2, “Amide derivative” (Daiichi Sankyo Company, Limited, priority 2009, dated 2013).

Structures can show the parent of a compound that is named as a salt. Where two headings read alike, the source gives them in different places.

One experiment deals with T1, substance P receptor (Cavia porcellus, UniProt P30547).
T1 construct: A preparation of a crude lung membrane sample was prepared; from tissue; host or cells: guinea-pig lung (crude membrane sample)
The experiment in a line: Test for binding to guinea-pig substance P receptor (crude lung membrane sample). The note with it: crude guinea-pig lung membrane sample, [3H]substance P; Ki from IC50 and Kd; read-out: Ki. As to the method: A preparation of a crude lung membrane sample was prepared, and a test for binding of a test substance to the sample was performed according to the method described in EP0336230A2.
The binding effect of the test substance to a substance P receptor was calculated as an affinity (Ki) of the test substance for the substance P receptor from a 50% binding concentration (IC50) and an affinity (Kd) of [^3H]substance P for the substance P receptor.

Another experiment has as its target T2, human NK2 receptor (Homo sapiens, UniProt P21452).
T2 construct: expressed in transfected cells; host or cells: COS cells
T2 sequence (P21452 1-398): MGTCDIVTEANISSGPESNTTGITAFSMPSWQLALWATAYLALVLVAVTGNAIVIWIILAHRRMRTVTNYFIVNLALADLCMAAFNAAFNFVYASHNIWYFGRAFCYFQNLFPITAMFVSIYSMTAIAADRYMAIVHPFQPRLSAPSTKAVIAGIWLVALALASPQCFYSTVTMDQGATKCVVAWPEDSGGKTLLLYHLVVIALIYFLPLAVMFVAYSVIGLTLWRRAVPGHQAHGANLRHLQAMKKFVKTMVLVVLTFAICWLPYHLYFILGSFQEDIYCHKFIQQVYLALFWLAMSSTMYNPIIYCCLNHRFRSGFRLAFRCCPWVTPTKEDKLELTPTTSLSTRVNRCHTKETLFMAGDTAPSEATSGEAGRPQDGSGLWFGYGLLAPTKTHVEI
In words: Test for binding to human NK2 receptor. Summed up: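 Radioligand binding with [^3H]SR 48968 on cryopreserved COS cells expressing human NK2 receptor (5.0×10^5 cells/mL), in 50 mM Tris-HCl pH 7.4 with BSA, MnCl2 and protease inhibitors. Bound label collected on PEI-treated GF/B filters, counted by liquid scintillation; Ki derived from IC50 and radioligand Kd.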

A further experiment has as its target T3, human M3 receptor (Homo sapiens, UniProt P20309).
T3 construct: expressed in transfected cells; host or cells: CHO cells
In words: Test for binding to human M3 receptor. The method, boiled down: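 CHO-cell crude membranes expressing human M3 were incubated with [N-methyl-3H]-(−)-scopolamine methyl chloride in 50 mM Tris-HCl, 0.5 mM EDTA, pH 7.4, for 60 min at room temperature. Bound ligand was collected on PEI-pretreated glass-fibre filters and counted by liquid scintillation. Ki was calculated from IC50 and the radioligand Kd.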

The next experiment has as its target T4, neurokinin NK1 receptor (Cavia porcellus, UniProt P30547).
T4 construct: Using healthy guinea pigs (body weight, 350 to 550 g; Hartley male guinea pigs); from tissue; host or cells: live anaesthetised Hartley male guinea pigs (airway, in vivo)
In words: Effect of suppressing substance P-induced airway contraction (in vivo, intratracheal administration). To be noted: guinea pigs, intratracheal administration 60 minutes before 20 μg/kg i.v. SP, AUC of increase in airway pressure over 10 minutes; for ED50: guinea pig, read-out: ID50 (the source's name). On the set-up: species or system guinea pig. Here is the method:
Using healthy guinea pigs (body weight, 350 to 550 g; Hartley male guinea pigs), the effect of suppressing airway contraction induced by substance P (SP), which is an NK1 receptor agonist, was examined by a modified method of Konzett-Roessler (Naunyn-Schmiedebergs Arch. Exp. Pathol. Pharmakol. 195, 71 [1940]) using airway pressure as an indicator.
A tracheal cannula and a venous cannula were attached to a guinea pig anesthetized with pentobarbital (50 mg/mL solution, 0.40 to 0.50 mL/body, subcutaneous administration). An arterial cannula filled with heparin-containing physiological saline (100 U/mL) was further attached, and blood pressure and heart rate were monitored via an amplifier and an instantaneous heart rate meter. Subsequently, gallamine (20 mg/body, intravenous administration) was administered to terminate spontaneous breathing, and then 10 mL/kg of positive pressure breathing (Ugo-Basile Biological Research Apparatus, Cat. No. 7025) was rapidly performed at 60 times/min. The airway pressure during artificial breathing was detected with a pressure transducer (TP-200T or TP-400T; Nihon Kohden Corporation) attached to a side branch of the tracheal cannula, amplified (AP-601G; Nihon Kohden Corporation), and recorded in a recorder. After the airway pressure, blood pressure, and heart rate were stabilized, 20 μg/kg of SP was intravenously administered from the venous cannula to induce airway contraction, and the airway pressure was measured for the following 10 minutes.
The test substance was dissolved in a 5% glucose solution, a 0.5 mL/kg solution was intratracheally administered with an intratracheal administration apparatus (model 1A-1B; Penn-Century, Inc.) 60 minutes before stimulation with SP.
The AUC of increase in the airway pressure over 10 minutes after administration of SP was determined as the intensity of SP-induced airway contraction and calculated as an ID50 value from the inhibition rate based on the value of the control group (5% glucose solution intratracheal administration group).

Where [1] appears, read: COS cells expressing human NK2 receptor, [3H]SR 48968 1 nM, Ki from IC50 and Kd, read-out: Ki.
Setting [2] is: CHO cells expressing human M3 receptor, [N-methyl-3H]-(-)-Scopolamine methyl chloride 0.5 nM, Ki from IC50 and Kd, read-out: Ki.

T1 sequence (P30547 whole entry): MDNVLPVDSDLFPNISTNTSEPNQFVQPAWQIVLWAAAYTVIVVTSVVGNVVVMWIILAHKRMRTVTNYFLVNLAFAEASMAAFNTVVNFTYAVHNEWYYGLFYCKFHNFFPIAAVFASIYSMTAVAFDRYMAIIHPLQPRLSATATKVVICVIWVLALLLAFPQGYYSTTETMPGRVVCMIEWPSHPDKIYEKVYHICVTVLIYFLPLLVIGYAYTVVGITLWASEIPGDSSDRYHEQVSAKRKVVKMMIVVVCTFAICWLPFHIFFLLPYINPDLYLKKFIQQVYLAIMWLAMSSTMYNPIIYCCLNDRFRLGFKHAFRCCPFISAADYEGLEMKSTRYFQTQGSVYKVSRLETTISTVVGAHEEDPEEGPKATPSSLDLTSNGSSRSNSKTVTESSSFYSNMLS
T4 sequence (P30547 whole entry): as above
T3 sequence (P20309 whole entry): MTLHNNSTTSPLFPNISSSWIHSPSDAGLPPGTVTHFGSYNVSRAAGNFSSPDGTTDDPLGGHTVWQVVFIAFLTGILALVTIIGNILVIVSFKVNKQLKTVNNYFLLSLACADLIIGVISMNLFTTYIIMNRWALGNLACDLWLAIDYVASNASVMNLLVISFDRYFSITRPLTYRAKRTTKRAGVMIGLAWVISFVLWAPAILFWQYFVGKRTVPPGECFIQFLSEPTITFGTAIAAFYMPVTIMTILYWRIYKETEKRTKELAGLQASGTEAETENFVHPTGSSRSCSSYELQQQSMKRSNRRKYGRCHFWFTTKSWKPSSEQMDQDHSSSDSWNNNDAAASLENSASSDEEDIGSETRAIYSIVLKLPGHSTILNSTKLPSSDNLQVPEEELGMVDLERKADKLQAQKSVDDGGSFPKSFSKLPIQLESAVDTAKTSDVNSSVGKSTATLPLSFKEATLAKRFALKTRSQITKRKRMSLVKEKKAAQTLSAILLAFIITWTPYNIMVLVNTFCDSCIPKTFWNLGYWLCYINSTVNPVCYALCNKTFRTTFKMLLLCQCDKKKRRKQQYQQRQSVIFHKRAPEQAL

Regarding `CN(CCN1CCC(OC(=O)Nc2ccccc2-c2ccccc2)CC1)C(=O)CCCCCNc1ccc(C(=O)N(C)CCCN(C)C(=O)CO[C@H]2Cc3ccccc3C23CCN(CC[C@@]2(c4ccc(F)cc4)CN(C(=O)c4cc(C(F)(F)F)cc(C(F)(F)F)c4)CO2)CC3)cc1` [Example 72, 1-(2-{[6-({4-[{3-[({[(2S)-1′-{2-[(5R)-3-[3,5-Bis(trifluoromethyl)benzoyl]-5-(4-fluorophenyl)-1,3-oxazolidin-5-yl]ethyl}-2,3-dihydrospiro[indene-1,4′-piperidin]-2-yl]oxy}acetyl)(methyl)amino]propyl}(methyl)carbamoyl]phenyl}amino)hexanoyl](methyl)amino}ethyl)piperidin-4-yl biphenyl-2-ylcarbamate], the Ki on substance P receptor was 1.4 nM; at human NK2 receptor (setting [1]) it was 0.52 nM; at human M3 receptor (setting [2]), 1.6 nM. Moreover, the ED50 at neurokinin NK1 receptor came out at 0.0266 mg/kg.

Consider `CN(CCN1CCC(OC(=O)Nc2ccccc2-c2ccccc2)CC1)C(=O)CCCCCNc1cccc(C(=O)N(C)CCCN(C)C(=O)CO[C@H]2Cc3ccccc3C23CCN(CC[C@@]2(c4ccc(F)cc4)CN(C(=O)c4cc(C(F)(F)F)cc(C(F)(F)F)c4)CO2)CC3)c1` [Example 43, 1-(2-{[6-({3-[{3-[({[(2S)-1′-{2-[(5R)-3-[3,5-Bis(trifluoromethyl)benzoyl]-5-(4-fluorophenyl)-1,3-oxazolidin-5-yl]ethyl}-2,3-dihydrospiro[indene-1,4′-piperidin]-2-yl]oxy}acetyl)(methyl)amino]propyl}(methyl)carbamoyl]phenyl}amino)hexanoyl](methyl)amino}ethyl)piperidin-4-yl biphenyl-2-ylcarbamate trihydrochloride], for which the figures for the Ki at substance P receptor, at human NK2 receptor and on human M3 receptor were 1.6 nM, 1.3 nM and 2.6 nM, respectively. In addition, the ED50 on neurokinin NK1 receptor is 0.0766 mg/kg.

Turning to `CN(CCN1CCC(OC(=O)Nc2ccccc2-c2ccccc2)CC1)C(=O)CCCCCN(C)c1ccc(C(=O)N(C)CCCN(C)C(=O)CO[C@H]2Cc3ccccc3C23CCN(CC[C@@]2(c4ccc(F)cc4)CN(C(=O)c4cc(C(F)(F)F)cc(C(F)(F)F)c4)CO2)CC3)cc1` [Example 76, 1-{2-[{6-[{4-[{3-[({[(2S)-1′-{2-[(5R)-3-[3,5-Bis(trifluoromethyl)benzoyl]-5-(4-fluorophenyl)-1,3-oxazolidin-5-yl]ethyl}-2,3-dihydrospiro[indene-1,4′-piperidin]-2-yl]oxy}acetyl)(methyl)amino]propyl}(methyl)carbamoyl]phenyl}(methyl)amino]hexanoyl}(methyl)amino]ethyl}piperidin-4-yl biphenyl-2-ylcarbamate], the Ki is 2.7 nM on substance P receptor, 1 nM on human NK2 receptor (setting [1]) and 3.4 nM at human M3 receptor (setting [2]). For the same compound, on neurokinin NK1 receptor, the ED50 turned out to be 0.0622 mg/kg.

Take `CN(CCN1CCC(OC(=O)Nc2ccccc2-c2ccccc2)CC1)C(=O)CCCCCCN(C)c1ccc(C(=O)N(C)CCCN(C)C(=O)CO[C@H]2Cc3ccccc3C23CCN(CC[C@@]2(c4ccc(F)cc4)CN(C(=O)c4cc(C(F)(F)F)cc(C(F)(F)F)c4)CO2)CC3)cc1` [Example 40, 1-{2-[{7-[{4-[{3-[({[(2S)-1′-{2-[(5R)-3-[3,5-Bis(trifluoromethyl)benzoyl]-5-(4-fluorophenyl)-1,3-oxazolidin-5-yl]ethyl}-2,3-dihydrospiro[indene-1,4′-piperidin]-2-yl]oxy}acetyl)(methyl)amino]propyl}(methyl)carbamoyl]phenyl}(methyl)amino]heptanoyl}(methyl)amino]ethyl}piperidin-4-yl biphenyl-2-ylcarbamate trihydrochloride]: the Ki at substance P receptor is 1.6 nM; on human NK2 receptor, 0.83 nM; on human M3 receptor, 2 nM. Besides, on neurokinin NK1 receptor, the ED50 was found to be 0.0191 mg/kg.

`CN(CCCCCC(=O)N(C)CCN1CCC(OC(=O)Nc2ccccc2-c2ccccc2)CC1)Cc1ccc(C(=O)N(C)CCCN(C)C(=O)CO[C@H]2Cc3ccccc3C23CCN(CC[C@@]2(c4ccc(F)cc4)CN(C(=O)c4cc(C(F)(F)F)cc(C(F)(F)F)c4)CO2)CC3)cc1` [Example 74, 1-{2-[{6-[{4-[{3-[({[(2S)-1′-{2-[(5R)-3-[3,5-Bis(trifluoromethyl)benzoyl]-5-(4-fluorophenyl)-1,3-oxazolidin-5-yl]ethyl}-2,3-dihydrospiro[indene-1,4′-piperidin]-2-yl]oxy}acetyl)(methyl)amino]propyl}(methyl)carbamoyl]benzyl}(methyl)amino]hexanoyl}(methyl)amino]ethyl}piperidin-4-yl biphenyl-2-ylcarbamate]: the inhibition constant Ki at substance P receptor worked out at 0.87 nM; at human NK2 receptor (setting [1]), 0.14 nM; on human M3 receptor (setting [2]) it was 0.32 nM. Moreover, the ED50 on neurokinin NK1 receptor stood at 0.0174 mg/kg.

As to `CN(CCN1CCC(OC(=O)Nc2ccccc2-c2ccccc2)CC1)C(=O)CCCCCNc1ccc(N(C)C(=O)CCCN(C)C(=O)CO[C@H]2Cc3ccccc3C23CCN(CC[C@@]2(c4ccc(F)cc4)CN(C(=O)c4cc(C(F)(F)F)cc(C(F)(F)F)c4)CO2)CC3)cc1` [Example 84, 1-(2-{[6-({4-[{-4-[({[(2S)-1′-{2-[(5R)-3-[3,5-Bis(trifluoromethyl)benzoyl]-5-(4-fluorophenyl)-1,3-oxazolidin-5-yl]ethyl}-2,3-dihydrospiro[indene-1,4′-piperidin]-2-yl]oxy}acetyl)(methyl)amino]butanoyl}(methyl)amino]phenyl}amino)hexanoyl](methyl)amino}ethyl)piperidin-4-yl biphenyl-2-ylcarbamate trihydrochloride], the values for the Ki on substance P receptor, on human NK2 receptor and at human M3 receptor were 2.7 nM, 0.89 nM and 1.2 nM, respectively. Besides, the ED50 on neurokinin NK1 receptor worked out at 0.0357 mg/kg.

Turning to `CN(CCN1CCC(OC(=O)Nc2ccccc2-c2ccccc2)CC1)C(=O)CCCCCNc1ccc(C(=O)N(C)CCN(C)C(=O)CO[C@H]2Cc3ccccc3C23CCN(CC[C@@]2(c4ccc(F)cc4)CN(C(=O)c4cc(C(F)(F)F)cc(C(F)(F)F)c4)CO2)CC3)cc1` [Example 15, 1-(2-{[6-({4-[{2-[({[(2S)-1-{2-[(5R)-3-[3,5-Bis(trifluoromethyl)benzoyl]-5-(4-fluorophenyl)-1,3-oxazolidin-5-yl]ethyl}-2,3-dihydrospiro[indene-1,4′-piperidin]-2-yl]oxy}acetyl)(methyl)amino]ethyl}(methyl)carbamoyl]phenyl}amino)hexanoyl](methyl)amino}ethyl)piperidin-4-yl biphenyl-2-ylcarbamate], the Ki worked out at 1.5 nM at substance P receptor, 0.91 nM at human NK2 receptor (setting [1]) and 1.2 nM at human M3 receptor (setting [2]). This compound displayed an ID50 on neurokinin NK1 receptor of 0.0224 mg/kg.

In general, Ki refers to the dissociation constant of the complex between target and ligand, obtained from inhibition or displacement.
